Measurements taken from patent publication US8173808B2, “Substituted naphthalenyl-pyrimidine compounds” (ArQule, Inc., priority 2009, dated 2012).

Key:
MDA-MB-231 = assay: MTS assay, MDA-MB-231; type: cell-based; conditions: Homo sapiens, 72 hours, 1 Percent FBS
Experimental: (§1) Cells were maintained at 37° C., 5% CO2 in DMEM media supplemented with 1% fetal bovine serum, penicillin/streptomycin and fungizone (Invitrogen). Cells were seeded into 96-well tissue culture plates at 3000 per well and cultured at 37° C. for 18 hours. Test compounds were dissolved and diluted to 300× in DMSO then diluted 1:40 in DMEM. Cells were incubated with test compounds for 72 hours followed by incubation with tetrazolium compound (3-(4,5-dimethylthiazol-2-yl)-5-(3-carboxymethoxyphenyl)-2-(4-sulfophenyl)-2H-tetrazolium, inner salt; MTS) and the electron coupling reagent, phenazine methosulfate (PMS) for 4 hours. […] The ability of compounds to inhibit cell growth in this assay is correlated with the reduction of dehydrogenase enzyme activity found in metabolically active cells. The measurement of the absorbance of the formazan was assessed using a Victor (Perkin Elmer) microplate reader at 492 nm. The calculated IC50 value is the concentration of the test compound that causes a 50% decrease in the absorbance.

DLD-1 = assay: MTS assay, DLD-1; type: cell-based; conditions: Homo sapiens, 72 hours, 1 Percent FBS
Experimental: as §1

In the case of `CCN(CC)CCCN1CCN(CC(=O)Nc2cc(-c3ccnc(NC)n3)cc3ccc(OC)cc23)CC1` [Compound 36, 2-{4-[3-(diethylamino)propyl]piperazin-1-yl}-N-{7-methoxy-3-[2-(methylamino)pyrimidin-4-yl]-1-naphthyl}acetamide], the inhibition at 10 µM (MDA-MB-231) is reported as 92% and the inhibition at 10 µM (DLD-1) is reported as 87%.
In the case of `CNc1nccc(-c2cc(NC(=O)CN3CCN(CCO)CC3)c3cc(OC)ccc3c2)n1` [Compound 38, 2-[4-(2-hydroxyethyl)piperazin-1-yl]-N-{7-methoxy-3-[2-(methylamino)pyrimidin-4-yl]-1-naphthyl}acetamide], the inhibition at 10 µM (MDA-MB-231) is reported as 98% and the inhibition at 10 µM (DLD-1) is reported as 98%.
Work on `CNc1nccc(-c2cc(NC(=O)CN3CCN(c4ncncn4)CC3)c3cc(OC)ccc3c2)n1` [Compound 40, N-{7-methoxy-3-[2-(methylamino)pyrimidin-4-yl]-1-naphthyl}-2-[4-(1,3,5-triazin-2-yl)piperazin-1-yl]acetamide] yielded an inhibition at 10 µM (MDA-MB-231) of 40% and an inhibition at 10 µM (DLD-1) of 54%.
Work on `CNc1nccc(-c2cc(NC(=O)CN3CCN(CC4CCN(C)CC4)CC3)c3cc(OC)ccc3c2)n1` [Compound 41, N-{7-methoxy-3-[2-(methylamino)pyrimidin-4-yl]-1-naphthyl}-2-{4-[(l-methylpiperidin-4-yl)methyl]piperazin-1-yl}acetamide] yielded an inhibition at 10 µM (MDA-MB-231) of 71% and an inhibition at 10 µM (DLD-1) of 66%.
`CNc1nccc(-c2cc(NC(=O)CN3CCC(N4CCN(C)CC4)CC3)c3cc(OC)ccc3c2)n1` [Compound 45, N-{7-methoxy-3-[2-(methylamino)pyrimidin-4-yl]-1-naphthyl}-2-[4-(4-methylpiperazin-1-yl)piperidin-1-yl]acetamide] showed an inhibition at 10 µM (MDA-MB-231) of 99% and an inhibition at 10 µM (DLD-1) of 98%.
For `CNc1nccc(-c2cc(NC(=O)CN3CCN(CCc4cccs4)CC3)c3cc(OC)ccc3c2)n1` [Compound 46, N-{7-methoxy-3-[2-(methylamino)pyrimidin-4-yl]-1-naphthyl}-2-{4-[2-(2-thienyl)ethyl]piperazin-1-yl}acetamide], the inhibition at 10 µM (MDA-MB-231) was 99% and the inhibition at 10 µM (DLD-1) was 99%.
Work on `CNc1nccc(-c2cc(NC(=O)CNCC(C)(C)CO)c3cc(OC)ccc3c2)n1` [Compound 50, N~2~-(3-hydroxy-2,2-dimethylpropyl)-N-{7-methoxy-3-[2-(methylamino)pyrimidin-4-yl]-1-naphthyl}glycinamide] yielded an inhibition at 10 µM (MDA-MB-231) of 94% and an inhibition at 10 µM (DLD-1) of 97%.
`CCCCN(C)CCNCC(=O)Nc1cc(-c2ccnc(NC)n2)cc2ccc(OC)cc12` [Compound 51, N~2~-{2-[butyl(methyl)amino]ethyl}-N-{7-methoxy-3-[2-(methylamino)pyrimidin-4-yl]-1-naphthyl}glycinamide] showed an inhibition at 10 µM (MDA-MB-231) of 93% and an inhibition at 10 µM (DLD-1) of 98%.
`CNc1nccc(-c2cc(NC(=O)CN3CCN(CC(=O)N(C)C)CC3)c3cc(OC)ccc3c2)n1` [Compound 52, 2-{4-[2-({7-methoxy-3-[2-(methylamino)pyrimidin-4-yl]-1-naphthyl}amino)-2-oxoethyl]piperazin-1-yl}-N,N-dimethylacetamide] showed an inhibition at 10 µM (MDA-MB-231) of 96% and an inhibition at 10 µM (DLD-1) of 99%.
With `CNc1nccc(-c2cc(NC(=O)CNCCOC(C)C)c3cc(OC)ccc3c2)n1` [Compound 53, N~2~-(2-isopropoxyethyl)-N-{7-methoxy-3-[2-(methylamino)pyrimidin-4-yl]-1-naphthyl}glycinamide] the inhibition at 10 µM (MDA-MB-231) was 81% and the inhibition at 10 µM (DLD-1) was 92%.
`CNc1nccc(-c2cc(NC(=O)CNc3cccnc3)c3cc(OC)ccc3c2)n1` [Compound 54, N-{7-methoxy-3-[2-(methylamino)pyrimidin-4-yl]-1-naphthyl}-N~2~-pyridin-3-ylglycinamide] showed an inhibition at 10 µM (MDA-MB-231) of 65% and an inhibition at 10 µM (DLD-1) of 75%.
Compound `CNc1nccc(-c2cc(NC(=O)CNc3nc4ccccc4n3C)c3cc(OC)ccc3c2)n1` [Compound 58, N-{7-methoxy-3-[2-(methylamino)pyrimidin-4-yl]-1-naphthyl}-N~2~-(1-methyl-1H-benzimidazol-2-yl)glycinamide] has an inhibition at 10 µM (MDA-MB-231) of 99% and an inhibition at 10 µM (DLD-1) of 98%.
